Test results taken from ChEMBL document CHEMBL3585298, “Combination of 4-anilinoquinazoline and rhodanine as novel epidermal growth factor receptor tyrosine kinase inhibitors” (Bioorg Med Chem, 2015).

Legend:
A549 = experiment: Antiproliferative activity against human A549 cells assessed as cell growth by MTT assay; type: functional, cell-based
HepG2 = experiment: Antiproliferative activity against human HepG2 cells assessed as cell growth by MTT assay; type: functional, cell-based
[1] = target: Epidermal growth factor receptor (Homo sapiens, UniProt P00533); experiment: Inhibition of recombinant EGFR (unknown origin) assessed as inhibition of autophosphorylation after 1 hr by DELFIA/Time-resolved fluorometry
Epidermal growth factor receptor, sequence (P00533 whole entry): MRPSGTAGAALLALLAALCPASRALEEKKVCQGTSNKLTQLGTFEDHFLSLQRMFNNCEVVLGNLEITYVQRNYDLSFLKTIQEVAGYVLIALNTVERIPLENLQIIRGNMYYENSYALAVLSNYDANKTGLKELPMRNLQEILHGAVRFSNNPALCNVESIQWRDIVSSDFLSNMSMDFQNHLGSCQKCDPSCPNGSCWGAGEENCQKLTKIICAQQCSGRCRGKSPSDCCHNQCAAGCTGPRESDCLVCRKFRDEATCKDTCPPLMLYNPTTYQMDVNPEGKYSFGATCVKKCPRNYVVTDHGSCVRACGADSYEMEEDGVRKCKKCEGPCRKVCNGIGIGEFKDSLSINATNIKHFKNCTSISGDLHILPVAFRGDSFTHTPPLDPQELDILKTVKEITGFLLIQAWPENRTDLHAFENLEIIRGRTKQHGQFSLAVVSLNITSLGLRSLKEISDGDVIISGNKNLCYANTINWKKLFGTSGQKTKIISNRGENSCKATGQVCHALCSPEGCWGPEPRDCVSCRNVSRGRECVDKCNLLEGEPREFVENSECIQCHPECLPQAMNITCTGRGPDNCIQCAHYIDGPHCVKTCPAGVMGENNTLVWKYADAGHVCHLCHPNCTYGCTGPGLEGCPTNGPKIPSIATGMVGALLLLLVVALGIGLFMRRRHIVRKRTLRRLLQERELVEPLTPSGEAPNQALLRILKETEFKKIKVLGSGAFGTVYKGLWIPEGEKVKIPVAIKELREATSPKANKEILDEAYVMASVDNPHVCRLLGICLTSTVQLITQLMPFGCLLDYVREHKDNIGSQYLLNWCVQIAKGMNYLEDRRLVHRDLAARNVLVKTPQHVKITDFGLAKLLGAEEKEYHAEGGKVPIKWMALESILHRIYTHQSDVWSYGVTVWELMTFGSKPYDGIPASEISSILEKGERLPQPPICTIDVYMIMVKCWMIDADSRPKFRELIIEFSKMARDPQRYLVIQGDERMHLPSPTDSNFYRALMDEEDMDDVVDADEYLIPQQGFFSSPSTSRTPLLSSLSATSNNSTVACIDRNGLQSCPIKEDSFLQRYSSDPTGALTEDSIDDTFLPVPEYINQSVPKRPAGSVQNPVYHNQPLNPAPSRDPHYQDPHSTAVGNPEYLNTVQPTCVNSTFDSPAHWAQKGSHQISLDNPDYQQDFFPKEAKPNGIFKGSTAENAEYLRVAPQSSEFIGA

IC50 (A549) [µM]	IC50 (HepG2) [µM]	IC50 [1] [µM]	Compound
10.4	8.5	9.8	O=C1N=C(N2CCC[C@H]2C(=O)Nc2ccc3ncnc(Nc4cccc(Cl)c4)c3c2)S/C1=C/c1cccnc1
> 50	24.3		O=C1N=C(N2CCC[C@H]2C(=O)Nc2ccc3ncnc(Nc4cccc(Cl)c4)c3c2)S/C1=C/c1ccccc1Br
34.5	18.2		O=C1N=C(N2CCC[C@H]2C(=O)Nc2ccc3ncnc(Nc4cccc(Cl)c4)c3c2)S/C1=C/c1ccccc1F
24.2	15.4	13.2	O=C1N=C(N2CCC[C@H]2C(=O)Nc2ccc3ncnc(Nc4cccc(Cl)c4)c3c2)S/C1=C/c1ccc(-c2ccccc2)cc1
> 50	22.9		O=C1N=C(N2CCC[C@H]2C(=O)Nc2ccc3ncnc(Nc4cccc(Cl)c4)c3c2)S/C1=C/c1ccc2ccccc2n1
6.1	4.12	8.1	O=C1N=C(N2CCC[C@H]2C(=O)Nc2ccc3ncnc(Nc4cccc(Cl)c4)c3c2)S/C1=C/c1cccs1
8.5	4.5	6.5	Cc1cccc(/C=C2/SC(N3CCC[C@H]3C(=O)Nc3ccc4ncnc(Nc5cccc(Cl)c5)c4c3)=NC2=O)n1
18.7	10.5	7.6	O=C1N=C(N2CCC[C@H]2C(=O)Nc2ccc3ncnc(Nc4cccc(Cl)c4)c3c2)S/C1=C/c1ccc(Cl)cc1
> 50	> 50	31.4	O=C1N=C(N2CCC[C@H]2C(=O)Nc2ccc3ncnc(Nc4cccc(Cl)c4)c3c2)S/C1=C/c1ccc(Br)s1
3.1	2.7	3.1	O=C1N=C(N2CCC[C@H]2C(=O)Nc2ccc3ncnc(Nc4cccc(Cl)c4)c3c2)S/C1=C/c1cccc(Br)n1

Continued, compound first:

Compound	IC50 (A549) [µM]	IC50 (HepG2) [µM]	IC50 [1] [µM]
O=C1N=C(N2CCC[C@H]2C(=O)Nc2ccc3ncnc(Nc4cccc(Cl)c4)c3c2)S/C1=C/c1ccccc1Cl	> 50	28.1	
COc1ccccc1/C=C1/SC(N2CCC[C@H]2C(=O)Nc2ccc3ncnc(Nc4cccc(Cl)c4)c3c2)=NC1=O	> 50	22.1	
O=C1N=C(N2CCC[C@H]2C(=O)Nc2ccc3ncnc(Nc4cccc(Cl)c4)c3c2)S/C1=C/c1ccccc1[N+](=O)[O-]	> 50	32.5	
O=C1N=C(N2CCC[C@H]2C(=O)Nc2ccc3ncnc(Nc4cccc(Cl)c4)c3c2)S/C1=C/c1cccnc1Cl	10.8	6.4	7.4
O=C1N=C(N2CCC[C@H]2C(=O)Nc2ccc3ncnc(Nc4cccc(Cl)c4)c3c2)S/C1=C/c1cccc(Br)c1	> 50	21.3	
COc1ccc(/C=C2/SC(N3CCC[C@H]3C(=O)Nc3ccc4ncnc(Nc5cccc(Cl)c5)c4c3)=NC2=O)cc1	31.7	19	
O=C1N=C(N2CCC[C@H]2C(=O)Nc2ccc3ncnc(Nc4cccc(Cl)c4)c3c2)S/C1=C/c1cccc(Cl)c1	> 50	27.6	
